Measurements from a melting point compilation (Tetko et al.; mined from patent text by program, amines drawn as free bases though some values may be those of a salt).
Residues, ends and D or L forms follow the SMILES beside them. *: point of attachment. Cbz = O=C(OCc1ccccc1)*

SMILES	melting point
O=C(CCC(=O)N1CCC(c2ccc(Cl)cc2)CC1)c1ccc2c(c1)CCN(CCn1cccc1)CC2	96 to 97 °C
Nc1cc(-n2cc(C(=O)O)c(=O)c3cc(F)c(N4CC(N)C4)nc32)c(F)cc1F	168 to 170 °C
c1cc2c(s1)CNCCS2	138 to 139 °C
Cc1ccc2c(c1)CCn1ccnc1C2=C1CCN(CCc2ccc(O)cc2)CC1	176 °C
O=C1CC(NC(=O)c2cccnc2)CCCN1 (centres undefined)	220 to 221 °C
Nc1ncnc2c1c(-c1ccc(Oc3ccccc3)cc1)cn2C1COCC1O (centres undefined)	234 to 236 °C
CCCCCCCCCCCCCCCCCC(O)c1ccc(O)c(C(=O)O)c1 (centres undefined)	102 °C
CC(=O)OC1CC2C=CC3C4CCC(C(C)CCCC(C)C)C4(C)CCC3C2(C)C(OC(C)=O)C1 (centres undefined)	116 to 118 °C
NS(=O)(=O)c1cc(CC(=O)C=CC(=O)O)ccc1Cl	217 to 218 °C
CC(C)C1CC1(O)C(=O)O (centres undefined)	135 to 138 °C
Cc1nc2ccc(N)cc2c(=O)n1C1CCC(=O)NC1=O (centres undefined)	314 to 316 °C
CC(c1cc(Br)c(O)c(Br)c1)(c1cc(Br)c(O)c(Br)c1)c1cc(Br)c(O)c(Br)c1	160 °C
O=S(=O)(CC(O)(CBr)c1ccccc1)c1ccccc1 (centres undefined)	91 °C
O=C(C1CCCc2c1c1ccccc1n2Cc1ccccc1)N1CCCC1 (centres undefined)	232 to 234 °C
C=CCONC(=O)c1nc(-c2ccc(Cl)c(OC)c2F)cc(N)c1Cl	169 to 172 °C
COc1ccc([C@@H]2O[C@@](O[Si](C)(C)C)(C(F)(F)F)[C@H](Cc3ccccc3)N2C(=O)OCc2ccccc2)cc1	41 to 42 °C
Cn1nnnc1CC(=O)c1ccc(C(F)(F)F)cc1N	200 to 201 °C
CC1c2ccccc2N(CCN2CC=C(c3c[nH]c4cc(F)ccc34)CC2)S(=O)(=O)N1C (centres undefined)	105 to 108 °C
CCN1C(=O)N(c2ccc([N+](=O)[O-])c(C(F)(F)F)c2)C(=O)C1(C)C	110 to 111 °C
CC(C)(C)OC(=O)NC(CC(=O)NCCC(=O)OCc1ccccc1)C(=O)NCCC(=O)OCc1ccccc1 (centres undefined)	109 to 110 °C
CS(=O)(=O)CCCC1(C(=O)O)CCC1	113 to 116 °C
COc1cc(-c2cccc(C=C3SC(N4CCOCC4)=NC3=O)c2)cc(C23CC4CC(CC(C4)C2)C3)c1	234 to 238 °C
O=C(O)c1cc2ccnc(N(Cc3ccccc3)Cc3ccccc3)c2[nH]1	114 to 120 °C

SMILES	melting point
CS(=O)(=O)c1cccc(-c2ccc3cnc(Nc4ccc(C5CCN(CC(N)=O)CC5)cc4)nn23)c1	254 °C
O=C1C2CCCCC2C(=O)N1c1ccncc1 (centres undefined)	165 to 168 °C
CC(C)NCC(O)C(Oc1ccccc1)c1ccccc1 (centres undefined)	95 to 96 °C
CN(c1cc(=S)ss1)C1CCCCC1	107 °C
COc1cc2c(c(OC)c1OC)CCN(c1nc(N)c3cc(OC)c(OC)c(OC)c3n1)C2	193 to 195 °C
Cn1ncc(C(=O)N2CCOCC2)c1C(=O)Nc1ccc2nc(-c3ccccc3)nn2c1	183 to 185 °C
O=C(/C=C/c1cccc(F)c1)N1CCN(C(=O)c2cc(C(F)(F)F)cc(C(F)(F)F)c2)[C@H](Cc2c[nH]c3ccccc23)C1	120 to 130 °C
C#CCOc1noc2ccc(N3C(=O)C4=C(CCCC4)C3=O)cc12	147 to 148 °C
COc1ccc(C(OC2CCN(CC(=O)O)CC2)c2ccccc2)cc1 (centres undefined)	84 to 85 °C
CCSC(NC(C)=O)C(=O)NCc1ccccc1 (centres undefined)	146 to 148 °C
C=CCc1cc2c(c(CC=C)c1OC1CCCCO1)CCC(=O)N2 (centres undefined)	119 to 120 °C
O=C(O)C(=O)Nc1cccc(NC(=O)C(=O)O)n1	> 310 °C
O=C(NCc1ccc(Br)cc1)Nc1cccc2[nH]ccc12	198 °C
O=C1CCCC2=C1C(c1ccc(Br)s1)C1=C(CCS1)N2 (centres undefined)	> 250 °C
CCC1(C)C(=O)N(C(C)C)CC(C)(C)N1OC(C)(C)C#N (centres undefined)	106 to 108 °C
O=C(O)CCC(CS(=O)(=O)c1ccc2ccccc2c1)C(=O)N(CCC1CCCCC1)CCC1CCCCC1 (centres undefined)	138 to 140 °C
CCCSc1ncc(C(=O)N[C@H](Cc2ccccc2)C(=O)O)n1Cc1ccccc1Cl	176 to 177 °C
CCc1ccc2c(c1)cc(C(=O)Nc1nc(-c3c(OC)cc(C)cc3OC)n(CCC3CCCCC3)n1)n2CC(=O)OC	191 °C
Nc1nccc(N2CCc3ccccc32)n1	177 to 179 °C
COC(=O)C(Cc1c[nH]c2ccccc12)NC(=O)C(CCC(N)=O)NC(=O)OCc1ccccc1 (stereo not drawn) (Cbz-Gln-Trp-OMe; configuration not given here)	197 to 198 °C
CC(C)(C)C1OCCO1	86 °C
CC(C)(C)c1ccc(/C=N/OCCOc2ccc(C(=O)O)c(OC(=O)c3ccc(C(F)(F)F)cc3)c2)cc1	146 to 148 °C
Cc1ccc(/C=C/C2=CCN(Cc3c[nH]c4ncccc34)CC2)cc1	209 to 212 °C

Further lines, results first:

melting point	SMILES
83 to 84 °C	Cc1cc(C)c2c(-c3ccc(C(C)C)cc3)csc2c1
167 to 169 °C	CCCCC1OC(=O)c2cc(NC(C)=O)c([N+](=O)[O-])cc21 (centres undefined)
114 °C	CC(C)c1cc(Br)cc(C(C)C)c1N=C(c1ccccc1)c1ccccc1
151 to 155 °C	CCCc1c(OCCCOc2ccc(C(C)=O)c(OCC(=O)O)c2CCC)ccc(C(C)=O)c1O
86 to 88 °C	O=C(/C=C/c1ccccc1Sc1ccc(Cl)cc1)NC1CCC(O)CC1 (centres undefined)
180 to 182 °C	Nc1nccc(Oc2ccc3c(c2)CCCN3)n1
80 to 81 °C	CC(C)(C)[Si](OCc1ccc([N+](=O)[O-])cc1)(c1ccccc1)c1ccccc1
132 to 134 °C	O=C(O)[C@H](Cc1ccccc1)NS(=O)(=O)c1ccc(Cl)cc1
160 to 163 °C	CC(C)N1C(=O)C2CC2(c2ccc(N)cc2)C1=O (centres undefined)
107 °C	Cc1cc(-c2cc(C(F)F)n3nccc3n2)ccc1Cl
135 to 136 °C	CC(C)Oc1cc(CCC(=O)NS(=O)(=O)C(C)C)n(Cc2ccc(Cl)cc2Cl)n1
144 to 146 °C	Cc1cc(Cl)ccc1Oc1ccc([N+](=O)[O-])cc1C#N
117 to 120 °C	Nc1cccc(OCc2nc3ccccc3s2)c1
173 to 175 °C	Cc1c(Cl)ccc(C(=O)O)c1Cl
152 to 153 °C	CC(C)(C)c1ccc(COc2ccc(CSc3ccc(OCC(=O)O)c4c3CCC4)cc2)cc1
286 to 289 °C	Cc1nn(C)c2cnc(-c3ccc(C(F)(F)F)cc3)nc12
149 to 151 °C	NC(=O)c1ccc(OCC2CO2)c(I)c1 (centres undefined)
68 °C	COC(=O)CCn1c(C(=O)NCC(=O)N(CC2CCCCC2)c2c(OC)cc(C)cc2OC)cc2ccccc21
125 to 126 °C	COc1ccc(-c2cccc(C(=O)NO)c2C)cc1OCCCCCc1ccccc1
167 to 168 °C	CCOC(=O)/C=C/c1ccc(OCC(C)=O)cc1Oc1ncc(C(F)(F)F)cc1Cl
59 to 62 °C	COc1cc(C(=O)CS(=O)(=O)N(C)C)c(N)cc1Cl
140 to 141 °C	COc1cc(C=CC(=O)c2ccc(I)cc2O)cc(OC)c1OC
188 to 189 °C	CC(=O)OCC(C)(C)c1ccc(S(=O)(=O)Nc2ncnc(Cl)c2-c2ccc(C)cc2)cc1
138 to 140 °C	CC(C)(C)C(=O)c1ccc(CN2C(=O)c3ccccc3C2=O)cc1
130 to 131 °C	COC(=O)c1cc(OC)c(N(C)C(=O)OCc2ccccc2)c(OC)c1
94 to 96 °C	O=C1c2cc([N+](=O)[O-])ccc2CCC1Br (centres undefined)
58 to 60 °C	CN1C(=O)c2ccccc2OC1(C)COc1ccc(CC2SC(=O)NC2=O)cc1 (centres undefined)

melting point	SMILES
140 to 141 °C	Cc1cc(-n2ccc(OCc3ccccc3)cc2=O)sc1C(=O)NCc1cccc(F)c1
259 to 261 °C	O=C1Nc2ccc([N+](=O)[O-])cc2C(=O)N2CCC[C@@H]12
237 to 240 °C	CC(=O)c1c(-c2ccncc2)[nH]c(-c2ccncc2)c1C
80 °C	CCOC(=O)C(=C1CCCN1C)c1ccc(F)cc1
138 to 139 °C	Cc1nn(-c2ccc(C(F)(F)F)cn2)cc1COc1ccc(OCC(=O)O)cc1
193 to 195 °C	COc1ccc(S(=O)(=O)Nc2ccccc2Nc2ncccn2)cc1
166 to 168 °C	O=C1Cc2cccc(Nc3ccccc3)c2N1
217 to 219 °C	O=C(CCl)Nc1ccc(Sc2ccc([N+](=O)[O-])cc2)cc1
240 to 242 °C	O=P(O)(O)COc1ccc(-c2c3ccccc3cc3sc4ccccc4c23)cc1
165 to 166 °C	COc1ccc(C2(C#N)C3CC4CC(C3)CC2C4)cc1 (centres undefined)
85 to 88 °C	Cc1ccc(S(=O)(=O)OCC2Cc3cccc(C=CC(C)(C)C)c3O2)cc1 (centres undefined)
148 to 149 °C	CCOCn1nccc1C(=O)c1ccc(OCC(=O)O)c(Cl)c1Cl
116 to 117 °C	Cc1oc(-c2ccccc2)nc1COc1ccccc1CON=C(CCC(=O)O)c1ccccc1
152 to 153 °C	Cc1oc(-c2ccccc2)nc1CCc1nc(COc2ccccc2CC(=O)O)cs1
115 to 117 °C	CC(C)(C)c1cc(CN=[N+]=[N-])nn1-c1ccc(S(C)(=O)=O)cc1
229 to 231 °C	COc1ccc(NC(=O)CN2C(=O)c3ccccc3C2=O)c(OC)c1COc1cccc2ccc(C)nc12
190 to 191 °C	CCCc1cc(C(O)=S)cc(N)c1-c1ccccc1
> 320 °C	O=C(CCN1CCCC1)Nc1ccc2nc3ccc(NC(=O)CCN4CCCC4)cc3c(Cl)c2c1
206 to 209 °C	O=C(O)Cc1c(C(=O)c2ccc(Cl)c(Cl)c2)[nH]c2cc(Cl)ccc12
229 to 231 °C	CC(=O)Nc1ccc(S(=O)(=O)Cc2cccc(OC(C)=O)c2)c2ccc(C#N)nc12
179 to 185 °C	O=[N+]([O-])c1cc(CS)cc(O)c1O
80 to 81 °C	COc1ccc(-c2c(C#N)ccnc2SC)cc1
113 to 114 °C	CCC(C(=O)O)N(C(=O)c1cn(-c2ccc(OC)cc2)nc1C)c1ccc(OCC(C)(C)C)c(C#N)c1 (centres undefined)
50 to 52 °C	COc1cccc(C(=O)c2ccc(F)cc2F)c1
184 to 185 °C	Cc1cc(Oc2ccc(N)cc2)c2ncccc2c1
165 to 168 °C	COc1cc(OCc2ccccn2)ccc1/C=C/C(=O)CC(=O)/C=C/c1ccc2cc[nH]c2c1
